In patent US12285407B2, “Bis-indolylmethane derivatives and uses thereof” (The University of The West Indies, priority 2018, dated 2025):
Converted amounts (≈) assume the structure as drawn. Read-outs that look alike come from different tables or passages of the source.

Legend:
Escherichia coli O157:H7 = assay: Rescue concentrations of SP-BIM that reactivate antibiotic; format: cell-based; conditions: Escherichia coli
MRSA = assay: Adjuvant broth microdilution (antibiotic MIC with SP-BIM at 50 μg/mL); format: cell-based, Staphylococcus aureus; conditions: Staphylococcus aureus, antibiotic alone, Table 4, read-out: MIC of antibiotic, No compound
Escherichia coli [1] = assay: microbe, parasite or virus in culture; format: cell-based; conditions: read-out: MIC of antibiotic, No compound
Klebsiella pneumoniae [2] = assay: Adjuvant broth microdilution (antibiotic MIC with SP-BIM at 50 μg/mL); format: cell-based; conditions: Klebsiella pneumoniae; antibiotic alone; Table 7; read-out: MIC of antibiotic, No compound
Staphylococcus aureus = assay: Checkerboard synergy (FICI) of antibiotics with SP-BIM; format: cell-based; conditions: Staphylococcus aureus, Staphylococcus aureus; for MIC: 24 h, antibiotic alone, read-out: MIC antibiotic only
Streptococcus pneumoniae = assay: as above; format: cell-based; conditions: for MIC: 24 h, antibiotic alone, read-out: MIC antibiotic only
Bacillus cereus = assay: as above; format: cell-based; conditions: for MIC: 24 h, antibiotic alone, read-out: MIC antibiotic only
Enterococcus faecium = assay: as above; format: cell-based; conditions: Enterococcus faecium, Enterococcus faecium; for MIC: 24 h, antibiotic alone, read-out: MIC antibiotic only
Klebsiella pneumoniae [3] = assay: as above; format: cell-based; conditions: for MIC: 24 h, antibiotic alone, read-out: MIC antibiotic only
Escherichia coli [4] = assay: as above; parameters: MIC SP-BIM 13 only / MIC in combination: Antibiotic: unit not given beside the values; conditions: for MIC: 24 h
Candida albicans = assay: as above; parameters: MIC SP-BIM 13 only / MIC in combination: Antibiotic / MIC antibiotic only: unit not given beside the values
[5] = SP-BIM 9 in combination with the labelled antibiotic
[6] = SP-BIM 13 in combination with the labelled antibiotic
[7] = antibiotic in combination with SP-BIM 9
[8] = antibiotic in combination with SP-BIM 13
[9] = Streptococcus pneumonia (title: Streptococcus pyogenes), antibiotic + SP-BIM 9
[10] = Streptococcus pneumoniae, antibiotic + SP-BIM 13
[11] = MIC of the antibiotic in combination with SP-BIM 13

## Oc1ccc2[nH]cc(C(c3cc(O)c(O)c(O)c3)c3c[nH]c4ccc(O)cc34)c2c1 [SP-BIM 27, 5-(bis(5-hydroxy-1H-indol-3-yl)methyl)benzene-1,2,3-triol]
Escherichia coli O157:H7; read-out: MIC of SP-BIM 27
  MIC: > 250 µg/mL

## Oc1ccc2[nH]cc(C(c3cccc(Br)c3)c3c[nH]c4ccc(O)cc34)c2c1 [SP-BIM 28, 3,3′-((3-bromophenyl)methylene)bis(1H-indol-5-ol)]
Escherichia coli O157:H7; read-out: MIC SP-BIM 28
  MIC: 250 µg/mL (≈ 577 µM)

## COc1cc(Cc2cnc(N)nc2N)cc(OC)c1OC [Trimethoprim, trimethoprim]
MRSA
  MIC: 250 µg/mL
Escherichia coli [1]
  MIC: 2 µg/mL
Klebsiella pneumoniae [2]
  MIC: 16 µg/mL
Staphylococcus aureus; SP-BIM 9 checkerboard
  MIC: 1 µg/mL
Staphylococcus aureus; SP-BIM 13 checkerboard
  MIC: 1 µg/mL
Staphylococcus aureus; [5]
  FIC of SP-BIM 9: 0.02
Staphylococcus aureus; [6]
  FIC of SP-BIM 13: 0.5
Staphylococcus aureus; antibiotic + SP-BIM 9
  Interpretation: Indifferent (Indifferent: FICI>1.0-4.0)
  Σ FIC: <2.02
Staphylococcus aureus; antibiotic + SP-BIM 13
  Interpretation: Antagonistic (Antagonistic: FICI≥4.0)
  Σ FIC: 4.5
Staphylococcus aureus; [7]
  MIC in combination, Antibiotic: 2.0 µg/mL
Staphylococcus aureus; [8]
  MIC in combination, Antibiotic: 4 µg/mL
Staphylococcus aureus; in combination with SP-BIM 9
  FIC of antibiotic: 2.00
Staphylococcus aureus; in combination with SP-BIM 13
  FIC of antibiotic: 4.0
Streptococcus pneumoniae; Streptococcus pneumonia (title: Streptococcus pyogenes), SP-BIM 9 in combination with the labelled antibiotic
  FIC of SP-BIM 9: 0.06
Streptococcus pneumoniae; [9]
  Interpretation: Synergy (Synergy: FICI≤0.5)
  Σ FIC: <0.31
Streptococcus pneumoniae; Streptococcus pneumonia (title: Streptococcus pyogenes), antibiotic in combination with SP-BIM 9
  MIC in combination, Antibiotic: 8 µg/mL
Streptococcus pneumoniae; Streptococcus pneumonia (title: Streptococcus pyogenes), in combination with SP-BIM 9
  FIC of antibiotic: 0.25
Streptococcus pneumoniae; Streptococcus pneumoniae, Streptococcus pneumonia (title: Streptococcus pyogenes), SP-BIM 9 checkerboard
  MIC: 32 µg/mL
Streptococcus pneumoniae; Streptococcus pneumoniae, Streptococcus pneumoniae, SP-BIM 13 checkerboard
  MIC: 32 µg/mL
Streptococcus pneumoniae; Streptococcus pneumoniae, SP-BIM 13 in combination with the labelled antibiotic
  FIC of SP-BIM 13: 1.0
Streptococcus pneumoniae; [10]
  Interpretation: Antagonistic (Antagonistic: FICI≥4.0)
  Σ FIC: <4.9
Streptococcus pneumoniae; Streptococcus pneumoniae, antibiotic in combination with SP-BIM 13
  MIC in combination, Antibiotic: 125 µg/mL
Streptococcus pneumoniae; Streptococcus pneumoniae, in combination with SP-BIM 13
  FIC of antibiotic: 3.9
Bacillus cereus; SP-BIM 9 checkerboard
  MIC: > 250 µg/mL
Bacillus cereus; SP-BIM 13 checkerboard
  MIC: 250 µg/mL
Bacillus cereus; SP-BIM 9 concentration in combination with the labelled antibiotic
  MIC in combination, SP-BIM 9: 16 µg/mL
Bacillus cereus; [5]
  FIC of SP-BIM 9: 0.064
Bacillus cereus; [6]
  FIC of SP-BIM 13: 1.0
Bacillus cereus; antibiotic + SP-BIM 9
  Interpretation: Synergy (Synergy: FICI≤0.5)
  Σ FIC: <0.1
Bacillus cereus; antibiotic + SP-BIM 13
  Interpretation: Indifferent (Indifferent: FICI>1.0-4.0)
  Σ FIC: 2.0
Bacillus cereus; [7]
  MIC in combination, Antibiotic: 2 µg/mL
Bacillus cereus; [8]
  MIC in combination, Antibiotic: 250 µg/mL
Bacillus cereus; in combination with SP-BIM 9
  FIC of antibiotic: 0.008
Bacillus cereus; in combination with SP-BIM 13
  FIC of antibiotic: 1.00
Enterococcus faecium; SP-BIM 9 checkerboard
  MIC: 4 µg/mL
Enterococcus faecium; SP-BIM 13 checkerboard
  MIC: 4 µg/mL
Enterococcus faecium; [6]
  FIC of SP-BIM 13: 1.0
Enterococcus faecium; antibiotic + SP-BIM 13
  Interpretation: Antagonistic (Antagonistic: FICI≥4.0)
  Σ FIC: 5.0
Enterococcus faecium; [8]
  MIC in combination, Antibiotic: 16 µg/mL
Enterococcus faecium; in combination with SP-BIM 13
  FIC of antibiotic: 4.0
Klebsiella pneumoniae [3]; SP-BIM 9 checkerboard
  MIC: 8 µg/mL
Klebsiella pneumoniae [3]; SP-BIM 13 checkerboard
  MIC: 8 µg/mL
Klebsiella pneumoniae [3]; [5]
  FIC of SP-BIM 9: 0.5
Klebsiella pneumoniae [3]; [6]
  FIC of SP-BIM 13: 1.0
Klebsiella pneumoniae [3]; antibiotic + SP-BIM 9
  Interpretation: Indifferent (Indifferent: FICI>1.0-4.0)
  Σ FIC: <1.5
Klebsiella pneumoniae [3]; antibiotic + SP-BIM 13
  Interpretation: Indifferent (Indifferent: FICI>1.0-4.0)
  Σ FIC: <3.0
Klebsiella pneumoniae [3]; [7]
  MIC in combination, Antibiotic: 8 µg/mL
Klebsiella pneumoniae [3]; [8]
  MIC in combination, Antibiotic: 16 µg/mL
Klebsiella pneumoniae [3]; in combination with SP-BIM 9
  FIC of antibiotic: 1
Klebsiella pneumoniae [3]; in combination with SP-BIM 13
  FIC of antibiotic: 2.0
Escherichia coli [4]; read-out: MIC antibiotic only, Escherichia coli, antibiotic alone
  MIC: 2 µg/mL
Escherichia coli [4]; read-out: MIC antibiotic only, Escherichia coli, antibiotic alone, SP-BIM 9 checkerboard
  MIC: 2 µg/mL
Escherichia coli [4]; [11]
  MIC in combination: Antibiotic: 8
Escherichia coli [4]; [5]
  FIC of SP-BIM 9: 0.128
Escherichia coli [4]; [6]
  FIC of SP-BIM 13: 1.0
Escherichia coli [4]; antibiotic + SP-BIM 9
  Interpretation: Antagonistic (Antagonistic: FICI≥4.0)
  Σ FIC: <4.1
Escherichia coli [4]; antibiotic + SP-BIM 13
  Interpretation: Antagonistic (Antagonistic: FICI≥4.0)
  Σ FIC: <5.0
Escherichia coli [4]; [7]
  MIC in combination, Antibiotic: 8 µg/mL
Escherichia coli [4]; combination with SP-BIM 13
  FIC of antibiotic: 4.0
Escherichia coli [4]; in combination with SP-BIM 9
  FIC of antibiotic: 4
Candida albicans; 24 h, read-out: MIC antibiotic only
  MIC: > 250 µg/mL
Candida albicans; [11]
  MIC in combination: Antibiotic: 250
Candida albicans; [6]
  FIC of SP-BIM 13: 1.0
Candida albicans; antibiotic + SP-BIM 13
  Interpretation: Indifferent (Indifferent: FICI>1.0-4.0)
  Σ FIC: <2.0
Candida albicans; combination with SP-BIM 13
  FIC of antibiotic: 1.0
